Reference: article PMC10932281, “A Combination of β-Aescin and Newly Synthesized Alkylamidobetaines as Modern Components Eradicating the Biofilms of Multidrug-Resistant Clinical Strains of Candida glabrata” (International Journal of Molecular Sciences, 2024)
Converted amounts (≈) assume the structure as drawn. Read-outs that look alike come from different tables or passages of the source.

Columns and labels:
C. glabrata ATCC 90030 = test: MIC90/MFC, EUCAST broth microdilution; assay type: cell-based, Candida glabrata
[1] = test system: C. glabrata 2586 clinical strain; test: MIC90/MFC, EUCAST broth microdilution; assay type: cell-based, Candida glabrata
[2] = test system: Balb/3T3 mouse embryonic fibroblasts; test: Cell proliferation assay (MTT test); assay type: cell-based; parameters: Survival of the tested cell line: dose or concentration left out as unconfirmed; settings: 24 h
Protocol: Balb/3T3 (ATCC CCL-163) mouse embryonic fibroblasts were cultured in DMEM medium supplemented with 10% fetal bovine serum, 1 mM L-glutamine, and a 1% penicillin/streptomycin solution and were used for our cytotoxicity studies. The cells were cultured at 37 °C and 5% CO2 until the cell density of 10^6 mL^−1 was obtained. Such cells were then seeded in 24-well tissue microplates (2 × 10^4 cells per well) and allowed to adhere overnight under the abovementioned conditions. Cytotoxicity tests were carried out on the cells prepared in this way.
The newly synthesized AABs (C9, C11, C13, and C15) were selected based on previous studies. They were analyzed at the concentrations of 0.25, 0.5, 1, 2, and 3 µM. […] The BALB-3T3 cells were treated with the prepared mixtures, dissolved in a complete cell culture medium, and then incubated for 24 h under the abovementioned conditions. Three independent replicates were performed for each combination of compounds.
The cytotoxic effect of the tested compounds in combination with β-AE was evaluated by measuring mitochondrial dehydrogenase activity using the MTT assay. After a 24 h incubation period, the medium supplemented with the 1mM MTT solution was added to each well. The cultures were continued for another 4 h under the conditions enriched with 5% CO2. After this time, the supernatant was collected, and MTT formazan was extracted from the cells using DMSO. The reaction was then stopped with Sörensen buffer (0.1 mol/L glycine; 0.1 mol/L NaCl; and pH 10.5). The percentage of cytotoxicity was calculated by comparing the absorbance values (λ = 560 nm) of the test sample to the control sample, which was untreated fibroblast cells. In the test performed, the negative control (C−) (sample not treated; PBS added) and positive control (C+) were fibroblast cells treated with 1% SDS [60].

C. glabrata 2853 biofilm = test: Biofilm eradication on polystyrene, fluorescence microscopy (Syto9/PI); assay type: cell-based, Candida glabrata
Protocol: (§1) C. glabrata biofilm eradication on polystyrene surfaces was assessed according to the following procedure: 1 mL of C. glabrata culture, 10^6 CFU/mL in RMPI 1640 MOPS-buffered medium, was pipetted into the wells of a 48-well adherent plate. Cultures were incubated at 37 °C for 72 h with shaking (400 RPM). […] Non-treated cells were used as the control. This experiment was carried out in triplicate. The analysis of the biofilm eradication of C. glabrata strains on polystyrene surfaces was performed using fluorescence microscopy (FM). For further information, see Section 4.12. below.
(§2) The 72 h biofilm of C. glabrata strains on polystyrene surfaces was stained on 48-well adherent plates with 1 µL of propidium iodide (Ex λ = 543 nm/Em λ = 617 nm) and 1 µL of SYTO9 (Ex λ = 488 nm/Em λ = 503 nm) for 30 min using a LIVE/DEAD BacLight Bacterial Viability Kit (Thermo Fisher Scientific, Waltham, MA USA). Imaging was performed using a fluorescence microscope (FM) BX51 (Olympus, Tokyo, Japan) equipped with an Orca Flash 40 camera (Hamamatsu, Hamamatsu City, Japan) and 10× objective Plan APO. Scale bar = 100 µm. Detailed computer qualitative and quantitative analyses of the obtained pictures were performed by estimating the coverage area on the polystyrene plate (the percentage of the area occupied by the fungal biofilm). The cell viability analysis was performed by calculating the fluorescence intensity of the dyes (Syto9/PI) used. The acquired images were processed and analyzed using Fiji/ImageJ software ver. 1.53c (NIH, Bethesda, MD, USA). First, maximum intensity projections (MIPs) were obtained from stacks of images. The areas of the binary images were transferred into the original live and dead channel MIP images. The mean fluorescence intensities of all detected objects per field of view were calculated using ImageJ’s Analyze Threshold function (Software: ImageJ version 1.53 from Softonic).

C. glabrata 2586 biofilm = test: as above; assay type: cell-based, Candida glabrata
Protocol: as §1, §2

[3] = test system: C. glabrata ATCC 90030 biofilm; test: as above; assay type: cell-based, Candida glabrata
Protocol: as §1, §2

sheep red blood cells = test: Hemolysis assay; assay type: cell-based
Protocol: This test was performed according to a modified method. The hemolytic activity of the compounds was determined using sheep red blood cells. The blood was centrifuged (2000 RPM; 15 min) and rinsed 3 times with PBS. A total of 25 µL of erythrocytes for each sample were added to 500 µL of PBS to obtain the final concentration for the newly synthesized AABs: 0.25 µM, 0.5 µM; 1 µM, 2 µM; and 3 µM, and for β-AE, obtaining the following final concentrations: 100 µg/mL; 250 µg/mL; 500 µg/mL; 750 µg/mL; and 1000 µg/mL. The negative control (C−) consisted of erythrocytes suspended in PBS, and the positive control consisted of erythrocytes suspended in a 1% SDS solution. The samples were incubated for 2 h at 37 °C with shaking at 140 RPM. After this time, the blood cells were centrifuged (10 min; 2500 RPM), and 300 μL of the supernatant was transferred into a 96-well titration plate. Absorbance measurements were performed at a wavelength of λ = 540 nm. Measurements were performed in 10 repetitions. Finally, the values that were obtained from the samples treated with the test compound (OD test) were normalized relative to the positive (100% lysis; OD (C+)) and negative (untreated; OD (C−)) control samples to give the hemolysis ratio (HR) by using the following equation: HR (%) = OD test−OD (C−)/OD (C+) − OD (C−) × 100%.

[4] = test system: C. glabrata 2853 clinical strain; test: MIC90/MFC, EUCAST broth microdilution; assay type: cell-based, Candida glabrata
C. glabrata 2853 = test: Interaction of AABs (3 µM) with antifungal agents, modified checkerboard; assay type: cell-based, Candida glabrata
[5] = Nakaseomyces glabratus, AAB alone, read-out: MIC converted to

In the case of `CCCCCCCCCC(=O)N(C)CCC[N+](C)(C)CC(=O)[O-]` [C9], the MIC90 (C. glabrata ATCC 90030; ATCC 90030, AAB alone) is reported as 3 µM/mL, the MIC (C. glabrata ATCC 90030; Nakaseomyces glabratus, ATCC90030, reference strain, AAB alone, read-out: MIC converted to) is reported as 985 mg/L (≈ 3000 µM) and the MIC90 ([1]; AAB alone) is reported as 3 µM/mL. It also gave an MIC [1, 5] of 985 mg/L (≈ 3000 µM), a Surviving cells ([2]; 0.25 to 3 µM/mL) of 100% and a Biofilm surface area (C. glabrata 2853 biofilm; C9 combined with β-AE, optimal concentration configuration, control 84.52%) of 1.12%. For the same compound, the “Percentage of live cells” value (C. glabrata 2853 biofilm; C9 in combination with β-AE, 72 h, control 97.46%) was 3.33%, the viability at 1 µM (C. glabrata 2853 biofilm; Nakaseomyces glabratus, 2853BIOFILM, AAB alone 1 μM, 72 h, read-out: Biofilm Viability [%] 2853 Live) was 82.2% and the viability at 2 µM (C. glabrata 2853 biofilm; Nakaseomyces glabratus, 2853BIOFILM, AAB alone 2 μM, 72 h, read-out: Biofilm Viability [%] 2853 Live) was 76.2%. The viability at 3 µM (C. glabrata 2853 biofilm; Nakaseomyces glabratus, 2853BIOFILM, AAB alone 3 μM, 72 h, read-out: Biofilm Viability [%] 2853 Live) was 66.4%, the Biofilm surface area (C. glabrata 2586 biofilm; C9 combined with β-AE, optimal concentration configuration, control 73.17%) was 2.1% and the “Percentage of live cells” value (C. glabrata 2586 biofilm; C9 in combination with β-AE, 72 h, control 97.99%) was 1.93%. It also gave a viability at 1 µM (C. glabrata 2586 biofilm; Nakaseomyces glabratus, 2586BIOFILM, AAB alone 1 μM, 72 h, read-out: Biofilm Viability [%] 2586 Live) of 3.28%, a viability at 2 µM (C. glabrata 2586 biofilm; Nakaseomyces glabratus, 2586BIOFILM, AAB alone 2 μM, 72 h, read-out: Biofilm Viability [%] 2586 Live) of 3.01% and a viability at 3 µM (C. glabrata 2586 biofilm; Nakaseomyces glabratus, 2586BIOFILM, AAB alone 3 μM, 72 h, read-out: Biofilm Viability [%] 2586 Live) of 2.52%. The Biofilm surface area ([3]; C9 combined with β-AE, optimal concentration configuration, control 88.77%) was 1.37%, the “Percentage of live cells” value ([3]; C9 in combination with β-AE, 72 h, control 98.35%) was 1.64% and the viability at 1 µM ([3]; Nakaseomyces glabratus, ATCC90030, AAB alone 1 μM, 72 h, read-out: Biofilm Viability [%] 90030 Live) was 83.6%. For the same compound, the viability at 2 µM ([3]; Nakaseomyces glabratus, ATCC90030, AAB alone 2 μM, 72 h, read-out: Biofilm Viability [%] 90030 Live) was 23.8%, the viability at 3 µM ([3]; Nakaseomyces glabratus, ATCC90030, AAB alone 3 μM, 72 h, read-out: Biofilm Viability [%] 90030 Live) was 21.4% and the Hemolysis (sheep red blood cells; all concentrations tested (0.25 up to 3 µM)) was “not hemolytic at all concentrations tested”. For the same compound, the MIC90 ([4]; AAB alone) was 1 µM/mL and the MIC [4, 5] was 328 mg/L (≈ 1000 µM).

β-aescin was tested, and the “Multiplicity factor (MF) with C9” value (C. glabrata 2853; C9 3 µM) was 1, the “MIC90 of antimycotic combined with C9” value (C. glabrata 2853; C9 at constant 3 µM, dilutions in µg/mL) was 128 and the “Multiplicity factor (MF) with C11” value (C. glabrata 2853; C11 3 µM) was 1. The “MIC90 of antimycotic combined with C11” value (C. glabrata 2853; C11 at constant 3 µM, dilutions in µg/mL) was 128, the “Multiplicity factor (MF) with C13” value (C. glabrata 2853; C13 3 µM) was 1 and the “MIC90 of antimycotic combined with C13” value (C. glabrata 2853; C13 at constant 3 µM, dilutions in µg/mL) was 128. The “Multiplicity factor (MF) with C15” value (C. glabrata 2853; C15 3 µM) was 1, the “MIC90 of antimycotic combined with C15” value (C. glabrata 2853; C15 at constant 3 µM, dilutions in µg/mL) was 128 and the MFC (C. glabrata ATCC 90030; ATCC 90030) was 256 mg/L. It also gave an MIC90 (C. glabrata ATCC 90030; ATCC 90030) of 128 µg/mL, an MFC [1] of 256 mg/L and an MIC90 [1] of 256 µg/mL. The “Survival of the tested cell line” value ([2]; 64–512) was 83–85%, the “Biofilm Viability [%] 2853 Live” value (C. glabrata 2853 biofilm; 1 MIC β-AE, 72 h) was 92.13% and the “Area of the biofilm” value (C. glabrata 2853 biofilm; β-AE 1 × MIC, 72 h, control 84.52%, listed as β-AE) was 45.63%. For the same compound, the “Biofilm Viability [%] 2586 Live” value (C. glabrata 2586 biofilm; 1 MIC β-AE, 72 h) was 9.33%, the “Area of the biofilm” value (C. glabrata 2586 biofilm; β-AE 1 × MIC, 72 h, control 73.17%, listed as β-AE) was 59.3% and the “Biofilm Viability [%] 90030 Live” value ([3]; 1 MIC β-AE, 72 h) was 76.70%. The “Area of the biofilm” value ([3]; β-AE 1 × MIC, 72 h, control 88.77%) was 68.98%, the Hemolysis (sheep red blood cells; 100 up to 1000 µg/mL, 2 h, 37 °C) was “hemolytic at all concentrations tested” and the MFC [4] was 128 mg/L. The MIC90 [4] was 128 µg/mL.
